Values of other authors as cited in patent publication US20100003224A1, “Combination Therapy” (GENZYME CORPORATION, priority 2006, published 2010).

Experiments:
progenitor cells = conditions: single agent
white blood cell counts = conditions: WO 00/45814
[1] = system: collagen-induced arthritis; conditions: mice
pre-B-ALL cells [2] = conditions: in vitro
pre-B-ALL cells [3] = conditions: in vitro; remark: listed apart in the source
multiple sclerosis = conditions: in vivo

| Compound | mobilization of progenitor cells (progenitor cells) | white blood cell counts (white blood cell counts) | effects in collagen-induced arthritis models [1] | SDF-1 induced chemotaxis of pre-B-ALL cells into bone marrow stroma layers (pre-B-ALL cells [2]) | cytotoxic and antiproliferative effects of vincristine and dexamethasone (pre-B-ALL cells [3]) | efficacy in the treatment of multiple sclerosis (multiple sclerosis) |
| --- | --- | --- | --- | --- | --- | --- |
| c1cc(CN2CCCNCCNCCCNCC2)ccc1CN1CCCNCCNCCCNCC1 [AMD3100, 1,1′-[1,4-phenylene-bis(methylene)]-bis-1,4,8,11-tetraazacyclotetradecane] | mobilizes progenitor cells | elevate white blood cell counts | protective effects | blocked | enhanced |  |
| natalizumab: humanized monoclonal antibody against α4 (anti-VLA-4 antibody) |  |  |  |  |  | demonstrated efficacy |
